According to ChEMBL document CHEMBL4311992, “Discovery of 3-(((9H-purin-6-yl)amino)methyl)-4,6-dimethylpyridin-2(1H)-one derivatives as novel tubulin polymerization inhibitors for treatment of cancer” (Eur J Med Chem, 2019):
Activity calls are given as the source filed them. The rule behind the calls is not given here.

Legend:
[1] = molecular target: Serine/threonine-protein kinase 32B (Homo sapiens) (UniProt Q9NY57); assay: Inhibition of recombinant full-length human STK32B assessed as residual activity at 10 uM using casein as substrate measured after 120 mins in presence of [gamma33P]ATP by scintillation counting method
[2] = molecular target: Serine/threonine-protein kinase Chk2 (Homo sapiens) (UniProt O96017); assay: Inhibition of recombinant human CHK2 (5 to end residues) assessed as residual activity at 10 uM using KKKVSRSGLYRSPSMPENLNRPR as substrate measured after 40 mins in presence of [gamma33P]ATP by scintillation counting method
Mus musculus = species on record: Mus musculus; assay: Inhibition of recombinant full-length mouse PI3K p110beta/p85beta R123L mutant assessed as residual activity at 10 uM using phosphatidylinositol-4, 5-bisphosphate as substrate measured after 40 mins by HTRF assay
[3] = molecular target: Serine/threonine-protein kinase 4 (Homo sapiens) (UniProt Q13043); assay: Inhibition of recombinant full-length human MST1 assessed as residual activity at 10 uM using KKSRGDYMTMQIG as substrate measured after 40 mins in presence of [gamma33P]ATP by scintillation counting method
[4] = molecular target: Serine/threonine-protein kinase haspin (Homo sapiens) (UniProt Q8TF76); assay: Inhibition of recombinant human haspin (471 to end residues) assessed as residual activity at 10 uM using RARTLSFAEPG as substrate measured after 40 mins in presence of [gamma33P]ATP by scintillation counting method
[5] = molecular target: Insulin-like growth factor 1 receptor (Homo sapiens) (UniProt P08069); assay: Inhibition of recombinant human activated IGF1R (959 to end residues) assessed as residual activity at 10 uM using KKKSPGEYVNIEFG as substrate measured after 40 mins in presence of [gamma33P]ATP by scintillation counting method
HCT-116 [6] = assay: Induction of apoptosis in human HCT116 cells assessed as increase in cleaved caspase3 expression up to 200 nM measured after 48 hrs by Western blot analysis; type: functional, cell-based
[7] = tested on: Tyrosine-protein kinase ABL1 (Homo sapiens), P00519 [Y253F]; assay: Inhibition of recombinant human ABL Y253F mutant (27 to end residues) assessed as residual activity at 10 uM using EAIYAAPFAKKK as substrate measured after 40 mins in presence of [gamma33P]ATP by scintillation counting method
SW-620 [8] = assay: Induction of cell cycle arrest in human SW620 cells assessed as accumulation at G2/M phase after 24 hrs by propidium iodide-staining based flow cytometry; type: functional
[9] = molecular target: Protein kinase C alpha type (Homo sapiens) (UniProt P17252); assay: Inhibition of recombinant full-length human PKCalpha assessed as residual activity at 10 uM using histone H1 as substrate measured after 40 mins in presence of [gamma33P]ATP by scintillation counting method
HCT-116 [10] = assay: Induction of apoptosis in human HCT116 cells assessed as viable cells at 25 nM measured after 48 hrs by Annexin V-FITC/propidium iodide staining-based flow cytometry (reference value: 94.5%); type: functional; details: HCT-116, 48 h, read-out: Activity
[11] = molecular target: CDK17/Cyclin-Y (Homo sapiens) (UniProt Q00537+Q8ND76); assay: Inhibition of human CDK17/cyclinY assessed as residual activity at 10 uM using PKSPKARKKL as substrate measured after 120 mins in presence of [gamma33P]ATP by scintillation counting method; type: protein-complex assay
[12] = molecular target: CDK2/Cyclin A2 (Homo sapiens) (UniProt P24941+P20248); assay: Inhibition of recombinant full-length human CDK2/cyclinA assessed as residual activity at 10 uM using histone H1 as substrate measured after 40 mins in presence of [gamma33P]ATP by scintillation counting method; type: protein-complex assay
[13] = molecular target: Serine/threonine-protein kinase Nek2 (Homo sapiens) (UniProt P51955); assay: Inhibition of recombinant full-length human NEK2 assessed as residual activity at 10 uM using myelin basic protein as substrate measured after 40 mins in presence of [gamma33P]ATP by scintillation counting method
[14] = molecular target: Mitogen-activated protein kinase 8 (Homo sapiens) (UniProt P45983); assay: Inhibition of recombinant full-length human JNK1alpha1 assessed as residual activity at 10 uM using ATF2 as substrate measured after 40 mins in presence of [gamma33P]ATP by scintillation counting method
[15] = molecular target: Protein kinase C theta type (Homo sapiens) (UniProt Q04759); assay: Inhibition of recombinant full-length human PKCtheta assessed as residual activity at 10 uM using histone H1as substrate measured after 40 mins in presence of [gamma33P]ATP by scintillation counting method
[16] = molecular target: Calcium/calmodulin-dependent protein kinase kinase 1 (Homo sapiens) (UniProt Q8N5S9); assay: Inhibition of recombinant full-length human CAMKk1 assessed as residual activity at 10 uM using calmodulin as substrate measured after 40 mins in presence of [gamma33P]ATP by scintillation counting method
[17] = molecular target: Proto-oncogene tyrosine-protein kinase Src (Homo sapiens) (UniProt P12931); assay: Inhibition of human Src (1 to 530 residues) using GGEEEEYFELVKKKK as substrate measured after 40 mins in presence of [gamma33P]ATP by scintillation counting method; design: scale not given: the % may be the effect or the level left
[18] = molecular target: Aurora kinase B (Homo sapiens) (UniProt Q96GD4); assay: Inhibition of recombinant full-length human AURKB assessed as residual activity at 10 uM using AKRRRLSSLRA as substrate measured after 40 mins in presence of [gamma33P]ATP by scintillation counting method
SW-620 [19] = assay: Induction of apoptosis in human SW620 cells assessed as late apoptotic cells at 25 nM measured after 48 hrs by Annexin V-FITC/propidium iodide staining-based flow cytometry (reference value: 1.8%); type: functional
[20] = molecular target: Mitogen-activated protein kinase kinase kinase 3 (Homo sapiens) (UniProt Q99759); assay: Inhibition of recombinant full-length human MEKK3 assessed as residual activity at 10 uM using myelin basic protein as substrate measured after 40 mins in presence of [gamma33P]ATP by scintillation counting method
[21] = molecular target: [Pyruvate dehydrogenase (acetyl-transferring)] kinase isozyme 2, mitochondrial (Homo sapiens) (UniProt Q15119); assay: Inhibition of human PDHK2 assessed as residual activity at 10 uM by radiometric method
[22] = molecular target: cGMP-dependent protein kinase 1 (Homo sapiens) (UniProt Q13976); assay: Inhibition of recombinant full-length human PKG1alpha assessed as residual activity at 10 uM using RRRLSFAEPG as substrate measured after 40 mins in presence of [gamma33P]ATP by scintillation counting method
[23] = molecular target: Serine/threonine-protein kinase 33 (Homo sapiens) (UniProt Q9BYT3); assay: Inhibition of recombinant full-length human STK33 assessed as residual activity at 10 uM using myelin basic protein as substrate measured after 40 mins in presence of [gamma33P]ATP by scintillation counting method
[24] = tested on: Tyrosine-protein kinase BTK (Homo sapiens), Q06187 [R28H]; assay: Inhibition of full-length recombinant human BTK R28H mutant assessed as residual activity at 10 uM using LSNLYHQGKFLQTFCGSPLYRRR as substrate measured after 40 mins in presence of [gamma33P]ATP by scintillation counting method
Tyrosine-protein kinase BTK (Homo sapiens), Q06187 [R28H], sequence (Q06187 whole entry R28H): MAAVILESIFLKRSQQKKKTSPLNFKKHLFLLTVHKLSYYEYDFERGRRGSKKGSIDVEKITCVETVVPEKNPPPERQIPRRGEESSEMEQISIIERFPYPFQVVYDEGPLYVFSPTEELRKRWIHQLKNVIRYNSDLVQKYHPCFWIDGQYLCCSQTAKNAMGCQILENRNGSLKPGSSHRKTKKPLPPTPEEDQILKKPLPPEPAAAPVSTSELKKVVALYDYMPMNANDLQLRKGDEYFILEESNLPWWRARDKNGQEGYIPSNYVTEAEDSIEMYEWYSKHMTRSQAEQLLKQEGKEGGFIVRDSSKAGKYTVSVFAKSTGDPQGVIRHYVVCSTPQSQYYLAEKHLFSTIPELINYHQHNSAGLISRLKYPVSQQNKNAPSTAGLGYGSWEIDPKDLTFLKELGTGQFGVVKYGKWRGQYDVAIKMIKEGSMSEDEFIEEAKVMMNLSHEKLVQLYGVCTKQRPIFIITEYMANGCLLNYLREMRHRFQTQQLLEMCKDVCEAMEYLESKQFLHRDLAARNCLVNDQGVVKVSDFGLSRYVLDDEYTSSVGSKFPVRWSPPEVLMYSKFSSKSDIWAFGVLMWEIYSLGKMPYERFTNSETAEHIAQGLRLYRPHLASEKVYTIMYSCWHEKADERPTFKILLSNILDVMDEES

Mitogen-activated protein kinase kinase kinase 3 (Homo sapiens), sequence (Q99759 whole entry): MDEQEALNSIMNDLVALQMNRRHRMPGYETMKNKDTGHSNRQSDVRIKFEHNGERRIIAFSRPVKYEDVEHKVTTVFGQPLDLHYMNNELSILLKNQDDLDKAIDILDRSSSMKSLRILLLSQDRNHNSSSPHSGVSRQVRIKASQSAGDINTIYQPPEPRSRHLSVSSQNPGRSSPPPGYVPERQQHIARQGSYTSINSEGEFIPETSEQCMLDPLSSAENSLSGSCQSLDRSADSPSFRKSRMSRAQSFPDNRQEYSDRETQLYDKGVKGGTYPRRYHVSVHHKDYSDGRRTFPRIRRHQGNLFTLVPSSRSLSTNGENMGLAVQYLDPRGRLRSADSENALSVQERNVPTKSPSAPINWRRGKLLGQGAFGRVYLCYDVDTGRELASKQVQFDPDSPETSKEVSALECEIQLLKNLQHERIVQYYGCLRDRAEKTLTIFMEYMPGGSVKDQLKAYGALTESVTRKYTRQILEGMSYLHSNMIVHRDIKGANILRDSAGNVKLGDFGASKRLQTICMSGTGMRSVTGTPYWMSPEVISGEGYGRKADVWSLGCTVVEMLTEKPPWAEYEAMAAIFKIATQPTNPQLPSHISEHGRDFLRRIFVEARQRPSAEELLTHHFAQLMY
Serine/threonine-protein kinase 33 (Homo sapiens), sequence (Q9BYT3 whole entry, looked up): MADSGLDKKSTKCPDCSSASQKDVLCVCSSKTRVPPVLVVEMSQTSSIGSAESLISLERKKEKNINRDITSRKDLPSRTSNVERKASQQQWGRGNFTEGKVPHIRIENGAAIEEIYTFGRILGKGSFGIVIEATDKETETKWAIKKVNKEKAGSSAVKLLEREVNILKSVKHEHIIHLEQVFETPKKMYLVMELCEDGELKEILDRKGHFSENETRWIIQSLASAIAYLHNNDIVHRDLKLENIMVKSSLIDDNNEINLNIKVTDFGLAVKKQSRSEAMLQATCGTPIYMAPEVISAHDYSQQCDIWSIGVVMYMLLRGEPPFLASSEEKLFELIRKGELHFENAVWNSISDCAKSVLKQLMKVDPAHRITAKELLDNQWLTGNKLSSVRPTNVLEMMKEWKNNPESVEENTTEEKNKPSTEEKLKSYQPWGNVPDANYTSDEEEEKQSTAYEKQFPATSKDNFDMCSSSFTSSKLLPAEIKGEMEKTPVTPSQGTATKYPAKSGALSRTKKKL
Serine/threonine-protein kinase Nek2 (Homo sapiens), sequence (P51955 whole entry): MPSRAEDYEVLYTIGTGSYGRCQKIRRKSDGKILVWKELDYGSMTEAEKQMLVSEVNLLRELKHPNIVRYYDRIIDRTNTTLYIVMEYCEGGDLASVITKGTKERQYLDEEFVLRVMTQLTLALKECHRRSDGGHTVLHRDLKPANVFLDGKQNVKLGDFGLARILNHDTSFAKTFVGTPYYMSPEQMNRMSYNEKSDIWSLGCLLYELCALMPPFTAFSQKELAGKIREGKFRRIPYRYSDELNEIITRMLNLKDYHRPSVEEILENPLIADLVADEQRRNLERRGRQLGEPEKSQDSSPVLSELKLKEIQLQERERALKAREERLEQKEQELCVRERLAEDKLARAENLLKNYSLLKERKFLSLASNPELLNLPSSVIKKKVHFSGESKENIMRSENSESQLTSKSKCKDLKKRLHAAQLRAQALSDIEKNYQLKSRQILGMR
Serine/threonine-protein kinase haspin (Homo sapiens), sequence (Q8TF76 whole entry): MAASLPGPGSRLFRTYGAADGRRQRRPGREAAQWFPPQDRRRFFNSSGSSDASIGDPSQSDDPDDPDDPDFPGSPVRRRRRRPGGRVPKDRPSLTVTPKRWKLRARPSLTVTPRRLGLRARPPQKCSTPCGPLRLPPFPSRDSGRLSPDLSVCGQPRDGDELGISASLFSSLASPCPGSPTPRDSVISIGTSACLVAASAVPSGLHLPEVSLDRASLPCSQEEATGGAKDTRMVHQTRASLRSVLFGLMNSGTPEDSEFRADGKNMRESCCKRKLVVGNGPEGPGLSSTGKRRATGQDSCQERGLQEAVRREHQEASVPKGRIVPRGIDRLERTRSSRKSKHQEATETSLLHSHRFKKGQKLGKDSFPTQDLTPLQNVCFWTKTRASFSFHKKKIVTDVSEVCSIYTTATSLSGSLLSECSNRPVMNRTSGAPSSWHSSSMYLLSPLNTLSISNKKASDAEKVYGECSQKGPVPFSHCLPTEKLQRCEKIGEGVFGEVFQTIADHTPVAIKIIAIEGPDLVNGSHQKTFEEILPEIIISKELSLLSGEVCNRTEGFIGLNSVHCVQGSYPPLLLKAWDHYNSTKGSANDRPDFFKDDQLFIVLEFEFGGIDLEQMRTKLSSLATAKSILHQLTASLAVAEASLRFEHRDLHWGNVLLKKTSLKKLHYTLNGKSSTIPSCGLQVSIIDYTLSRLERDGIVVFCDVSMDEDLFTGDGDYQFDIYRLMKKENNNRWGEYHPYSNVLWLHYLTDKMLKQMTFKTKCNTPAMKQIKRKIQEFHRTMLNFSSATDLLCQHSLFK
CDK17/Cyclin-Y (Homo sapiens), sequence (Q00537 whole entry): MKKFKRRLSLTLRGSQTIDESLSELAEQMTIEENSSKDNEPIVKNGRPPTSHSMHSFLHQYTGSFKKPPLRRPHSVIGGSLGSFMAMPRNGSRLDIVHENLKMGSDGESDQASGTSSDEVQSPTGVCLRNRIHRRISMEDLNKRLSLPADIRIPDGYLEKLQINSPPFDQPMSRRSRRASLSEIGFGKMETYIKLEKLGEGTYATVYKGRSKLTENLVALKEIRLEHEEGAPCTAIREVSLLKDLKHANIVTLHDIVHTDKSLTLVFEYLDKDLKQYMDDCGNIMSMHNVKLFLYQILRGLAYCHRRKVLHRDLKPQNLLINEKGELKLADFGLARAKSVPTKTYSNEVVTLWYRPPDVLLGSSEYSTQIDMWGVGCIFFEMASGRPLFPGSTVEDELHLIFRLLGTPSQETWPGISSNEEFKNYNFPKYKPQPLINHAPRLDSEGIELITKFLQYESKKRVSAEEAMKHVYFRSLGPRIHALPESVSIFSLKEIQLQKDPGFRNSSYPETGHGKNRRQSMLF
CDK17/Cyclin-Y (Homo sapiens), sequence (Q8ND76 2-341 partner limits assumed): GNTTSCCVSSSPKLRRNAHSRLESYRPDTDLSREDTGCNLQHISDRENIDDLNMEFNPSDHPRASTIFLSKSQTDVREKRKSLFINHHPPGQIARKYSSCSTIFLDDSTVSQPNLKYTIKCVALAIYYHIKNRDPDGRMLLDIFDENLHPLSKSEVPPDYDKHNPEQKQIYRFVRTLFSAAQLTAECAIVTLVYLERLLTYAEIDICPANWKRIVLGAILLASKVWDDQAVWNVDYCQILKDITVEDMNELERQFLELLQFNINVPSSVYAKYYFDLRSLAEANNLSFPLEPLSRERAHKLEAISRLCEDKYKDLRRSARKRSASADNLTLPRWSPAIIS
Serine/threonine-protein kinase 32B (Homo sapiens), sequence (Q9NY57 whole entry): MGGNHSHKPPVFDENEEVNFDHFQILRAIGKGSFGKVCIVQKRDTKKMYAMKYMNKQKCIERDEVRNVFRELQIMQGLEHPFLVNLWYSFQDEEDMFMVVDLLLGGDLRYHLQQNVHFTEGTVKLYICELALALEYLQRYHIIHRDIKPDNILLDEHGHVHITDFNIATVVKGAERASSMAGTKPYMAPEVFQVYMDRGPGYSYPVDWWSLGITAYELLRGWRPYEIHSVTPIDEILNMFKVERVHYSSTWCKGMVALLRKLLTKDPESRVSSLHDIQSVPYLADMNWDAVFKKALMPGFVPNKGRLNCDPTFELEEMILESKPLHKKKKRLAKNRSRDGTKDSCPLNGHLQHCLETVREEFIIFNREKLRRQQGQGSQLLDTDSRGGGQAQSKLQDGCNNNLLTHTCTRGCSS
Aurora kinase B (Homo sapiens), sequence (Q96GD4 whole entry): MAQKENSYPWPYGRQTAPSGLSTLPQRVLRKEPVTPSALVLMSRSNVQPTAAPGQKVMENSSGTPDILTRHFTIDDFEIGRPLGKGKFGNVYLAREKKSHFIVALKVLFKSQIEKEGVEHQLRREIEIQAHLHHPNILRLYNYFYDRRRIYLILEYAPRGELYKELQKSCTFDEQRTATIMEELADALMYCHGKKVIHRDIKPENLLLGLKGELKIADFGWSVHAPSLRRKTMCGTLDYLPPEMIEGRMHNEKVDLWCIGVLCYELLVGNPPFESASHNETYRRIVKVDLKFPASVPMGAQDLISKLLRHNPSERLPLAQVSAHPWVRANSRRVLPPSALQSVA

For `Cc1cc(C)c(CNc2nc(Cl)nc3c2ncn3C2CCCC2)c(=O)[nH]1`, the Activity [1] was 98%, the Activity [2] was 105% and the Activity (Mus musculus) was 101%. For the same molecule, the Activity [3] was 122%, the Activity [4] was 89% and the Activity [5] was 90.5%. The Activity (HCT-116 [6]) was “Active”, the Activity [7] was 109% and the Activity (SW-620 [8]) was “Dose-dependent effect”. It also gave an Activity [9] of 88.5%, a viability at 0.025 µM (HCT-116 [10]) of 95.9% and an Activity [11] of 102%. For the same molecule, the Activity [12] was 110%, the Activity [13] was 101% and the Activity [14] was 96%. It also gave an Activity [15] of 103%, an Activity [16] of 102% and an Activity [17] of 124%. The Activity [18] was 143%, the Activity (SW-620 [19]) was 4.23% and the Activity [20] was 106%. The Activity [21] was 128%, the Activity [22] was 99.5% and the Activity [23] was 86.5%. For the same molecule, the Activity [24] was 98%.
